In patent US20070225363A1, “Methods and Agents for Inhibiting Dynamin-Dependent Endocytosis” (the University of Newcastle Research Associates Ltd., priority 2003, published 2007):
Entries after “also recorded” stand apart in the source; their conditions may differ.

Key:
[1] = test system: isolated nerve terminals (synaptosomes); assay: Glutamate release assay (exocytosis) in synaptosomes; format: cell-based, rat; conditions: 30 mM KCl
Description: The glutamate release assay was performed using enzyme-linked fluorescent detection of released glutamate (Cousin and Robinson., 2000a, b). Briefly, synaptosomes (0.6 mg in 2 ml) were resuspended in either plus (1.2 mM CaCl2) or minus (1 mM EGTA) Ca^2+ Krebs-like solution (118.5 mM NaCl, 4.7 mM KCl, 1.18 mM MgCl2, 0.1 mM Na2HPO4, 20 mM Hepes, 10 mM glucose, pH 7.4) at 37° C. Experiments were started after addition of 1 mM NADP^+. After 1 minute 50 U of glutamate dehydrogenase was added and the synaptosome suspension was stimulated after 4 minutes with 30 mM KCl. Increases in fluorescence due to production of NADPH were monitored in a Perkin-Elmer LS-50B spectrofluorimeter at 340 nm excitation and 460 nm emission. Experiments were standardised by the addition of 4 nmol of glutamate. Data is presented as Ca^2+-dependent glutamate release, calculated as the difference between release in plus and minus Ca^2+ solution for identical stimulation conditions.

Arf2 = assay: [α-32P]-GTP binding to small G protein Arf2; conditions: data not shown
Description: Competition of these drugs with GTP for the active site of 4 small G proteins (Rab3A, Ras, Arf2, RalA) was also tested.

dynamin I = dynamin I (Ovis aries, UniProt A0ACI6NZN1); assay: [α-32P]-GTP binding assay, dynamin I; design: species or system sheep
dynamin I, sequence (A0ACI6NZN1 entry or part of it): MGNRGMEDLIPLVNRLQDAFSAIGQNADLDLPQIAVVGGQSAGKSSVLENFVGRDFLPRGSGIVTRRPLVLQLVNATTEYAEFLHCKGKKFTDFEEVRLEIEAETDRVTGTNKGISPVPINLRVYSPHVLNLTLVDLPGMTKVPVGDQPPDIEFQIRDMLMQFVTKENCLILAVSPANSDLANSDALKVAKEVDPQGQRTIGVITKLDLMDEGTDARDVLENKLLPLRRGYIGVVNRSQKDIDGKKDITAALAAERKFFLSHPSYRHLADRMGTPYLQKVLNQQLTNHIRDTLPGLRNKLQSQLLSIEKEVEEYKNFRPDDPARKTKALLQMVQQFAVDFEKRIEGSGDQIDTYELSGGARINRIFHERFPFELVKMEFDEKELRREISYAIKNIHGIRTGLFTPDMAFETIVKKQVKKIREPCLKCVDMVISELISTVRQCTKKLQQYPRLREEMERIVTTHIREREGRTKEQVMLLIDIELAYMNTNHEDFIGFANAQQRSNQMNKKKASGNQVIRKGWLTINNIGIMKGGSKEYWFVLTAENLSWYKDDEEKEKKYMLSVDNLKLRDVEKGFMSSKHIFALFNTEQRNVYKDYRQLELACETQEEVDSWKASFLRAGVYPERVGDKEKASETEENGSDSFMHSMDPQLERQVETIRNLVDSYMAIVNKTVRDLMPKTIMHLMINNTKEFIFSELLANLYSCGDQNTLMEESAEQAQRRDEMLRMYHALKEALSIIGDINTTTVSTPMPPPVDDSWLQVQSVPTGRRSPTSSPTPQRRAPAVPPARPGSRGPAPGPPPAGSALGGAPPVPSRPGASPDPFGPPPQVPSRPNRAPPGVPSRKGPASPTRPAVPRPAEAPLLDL
Description: The [α-^32P]-GTP-binding assay was performed in the wells of a 96-well microtitre plate. Dynamin (0.2 μg/well) was added to GTPase buffer and incubated for 10 min at 4 C in the dark. [α-^32P]-GTP (2 μCi/tube) was then added to the reaction and incubated for a further 10 min at 4 C. in the dark. The microtitre plate was then irradiated with a short wavelength ultraviolet lamp at […] for 30 min at a distance of 8 cm. The specificity of photolabelling was determined by comparing the labelling in the presence and absence of 1 mM cold GTP. Samples were then applied to nitrocellulose membranes by aspiration through the wells of a 24 well slot blotter. The nitrocellulose was washed 3 times with PBS and dried. Bound nucleotide was detected by a phosphorimager (Molecular Dynamics).

dynamin II = molecular target: T1, dynamin II (Rattus norvegicus, UniProt P39052); assay: Dynamin II GTPase assay ([γ-32P]GTP hydrolysis); format: biochemical; conditions: GTPase activity, FIG. 1e
T1 construct: made in house; host or cells: insect cells
T1 sequence (P39052 1-870): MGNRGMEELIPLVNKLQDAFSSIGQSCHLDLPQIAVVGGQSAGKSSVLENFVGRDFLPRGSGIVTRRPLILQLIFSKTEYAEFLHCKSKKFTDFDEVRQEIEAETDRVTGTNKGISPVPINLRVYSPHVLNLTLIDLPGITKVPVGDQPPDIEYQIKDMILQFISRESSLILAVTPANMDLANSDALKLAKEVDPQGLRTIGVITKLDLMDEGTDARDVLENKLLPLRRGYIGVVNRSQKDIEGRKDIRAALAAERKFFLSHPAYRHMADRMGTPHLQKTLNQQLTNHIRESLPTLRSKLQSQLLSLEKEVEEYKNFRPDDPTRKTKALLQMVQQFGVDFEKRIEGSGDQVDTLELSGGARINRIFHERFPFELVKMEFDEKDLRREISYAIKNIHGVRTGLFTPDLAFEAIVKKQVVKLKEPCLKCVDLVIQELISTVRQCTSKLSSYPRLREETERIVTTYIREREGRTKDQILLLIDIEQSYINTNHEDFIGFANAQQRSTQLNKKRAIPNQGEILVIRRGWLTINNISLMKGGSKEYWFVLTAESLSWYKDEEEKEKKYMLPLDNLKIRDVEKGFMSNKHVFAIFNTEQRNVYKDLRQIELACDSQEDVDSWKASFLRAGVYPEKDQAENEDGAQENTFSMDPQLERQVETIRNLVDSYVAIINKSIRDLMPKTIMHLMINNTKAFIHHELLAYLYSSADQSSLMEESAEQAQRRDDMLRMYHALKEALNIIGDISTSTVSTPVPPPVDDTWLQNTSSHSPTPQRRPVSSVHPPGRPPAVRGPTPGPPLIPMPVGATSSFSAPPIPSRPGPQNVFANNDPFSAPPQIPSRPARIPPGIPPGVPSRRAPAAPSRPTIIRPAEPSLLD
Description: The plasmid for GST-Amph2-SH3 (muscle Amph2) (Butler et al., 1997) was provided by Pieto DeCamilli, Yale, Connecticut, USA, in pGEX2T vectors. The plasmid was grown in E. coli and the GST-Amph2-SH3 fusion protein was purified on glutathione (GSH)-Sepharose by elution with 10 mM reduced GSH in 20 mM Tris-HCl, pH 7.5, dialysed against the same buffer without GSH and stored at 4° C. Dynamin was purified from sheep brain by extraction from the peripheral membrane fraction of whole brain (Robinson et al., 1993) and affinity purification on GST-Amph2-SH3-sepharose as previously described (Marks and McMahon., 1998), yielding 8 mg protein from 250 g sheep brain. Recombinant dynamin II was expressed in insect cells and was a gift from Dr Sandra Schmid (Scripps, San Diego, Calif.). Recombinant dynamin I lacking the PH domain (dynamin PH, provided by Robin Scaife) was expressed in insect cells using baculoviral infection (Salim et al., 1996).
Dynamin GTPase activity was determined by hydrolysis of [ ? -^32P]GTP by a method modified from that described previously (Robinson et al., 1993). […] Dynamin activity was measured as either basal or phospholipid-stimulated with the addition of 5 μg/ml L-phosphatidylserine. […] After centrifuging for 5 min (13,000 rpm at room temperature), 200 μl of each supernatant was counted in a -counter for the release of ^32Pi from [ ? -^32P]-GTP.

## N#C/C(=C\c1ccc(O)c(O)c1)C(=O)NCCCNC(=O)/C(C#N)=C/c1ccc(O)c(O)c1 [bis-tyrphostin]
[1]
  exocytosis (Ca2+-dependent glutamate release): no effect
Arf2
  effect on [α-32P]-GTP binding to Arf2: neither drug affected
Dynamin I
  [α-32P]-GTP binding to dynamin I in the presence of drug: not seen to decrease; also recorded: not affected
Dynamin II
  IC50: 500 nM
